The source made the active and inactive calls. The rule behind the calls is not given here. Bridge positions count the residues as written; N and C are the ends. Square brackets hold non-standard residues; d marks the D form. Peptide text beside a SMILES is read from it.
What was measured:
[1] = molecular target: T1, Mas-related G-protein coupled receptor member X1 (Homo sapiens, UniProt Q96LB2); assay: Agonist activity at human MrgX1 receptor at 10 uM relative to BAM22; type: functional
[2] = molecular target: T2, Mas-related G-protein coupled receptor member X2 (Homo sapiens) (UniProt Q96LB1); assay: Agonist activity at human MrgX2 receptor at 10 uM relative to cortistatin-14; type: functional
T2 sequence (whole entry): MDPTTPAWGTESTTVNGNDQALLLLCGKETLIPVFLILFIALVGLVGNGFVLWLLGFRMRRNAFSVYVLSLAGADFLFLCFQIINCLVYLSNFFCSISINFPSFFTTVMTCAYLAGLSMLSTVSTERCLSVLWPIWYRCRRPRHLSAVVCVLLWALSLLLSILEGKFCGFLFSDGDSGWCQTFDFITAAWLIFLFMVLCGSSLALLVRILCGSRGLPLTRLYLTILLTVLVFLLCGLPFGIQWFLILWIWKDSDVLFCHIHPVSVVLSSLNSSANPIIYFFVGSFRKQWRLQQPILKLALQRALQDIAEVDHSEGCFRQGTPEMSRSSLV

Macaca mulatta [3] = organism: Macaca mulatta; assay: Agonist activity at monkey MrgX1 receptor at 10 uM relative to BAM22; type: functional
[4] = Agonist activity at monkey MrgX2 receptor; type: functional, Macaca mulatta
Macaca mulatta [5] = organism: Macaca mulatta; assay: Agonist activity at monkey MrgX2 receptor at 10 uM relative to cortistatin-14; type: functional
[6] = molecular target: T1, Mas-related G-protein coupled receptor member X1; assay: Agonist activity at human MrgX1 receptor; type: functional
[7] = molecular target: T3, Mas-related G-protein coupled receptor member X2 (Homo sapiens, UniProt Q96LB1); assay: Agonist activity at human MrgX2 receptor; type: functional
T3 sequence (Q96LB1 whole entry): T2 sequence (whole entry)

[8] = Agonist activity at monkey MrgX1 receptor; type: functional, Macaca mulatta
[9] = molecular target: T1, Mas-related G-protein coupled receptor member X1; assay: Agonist activity at MrgX1 receptor by calcium mobilization assay; type: functional
[10] = Metabolic stability in human liver microsome assessed as intrinsic clearance; type: ADME; conditions: liver microsomes

T1 sequence (Q96LB2 whole entry): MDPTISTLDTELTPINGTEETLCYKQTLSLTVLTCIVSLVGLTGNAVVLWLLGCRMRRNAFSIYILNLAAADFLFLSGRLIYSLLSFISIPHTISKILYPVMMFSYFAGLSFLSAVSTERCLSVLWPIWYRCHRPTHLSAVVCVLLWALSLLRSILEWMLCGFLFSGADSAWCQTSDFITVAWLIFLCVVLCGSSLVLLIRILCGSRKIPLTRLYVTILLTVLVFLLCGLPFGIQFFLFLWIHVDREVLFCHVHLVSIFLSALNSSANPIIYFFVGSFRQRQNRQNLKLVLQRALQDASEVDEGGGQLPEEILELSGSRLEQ

Structure (SMILES)	Efficacy [1]	Efficacy [2]	Efficacy (Macaca mulatta [3])	pEC50 [4]	Efficacy (Macaca mulatta [5])	EC50 [6] [nM]	EC50 [7] [nM]	pEC50 [8]	Activity [9]	microsomal CLint [10] [µL/min/mg]
C[C@@H](O)[C@@H]1NC(=O)[C@@H](CCCCN)NC(=O)[C@H](Cc2c[nH]c3ccccc23)NC(=O)[C@H](Cc2ccccc2)NC(=O)[C@H](Cc2ccccc2)NC(=O)[C@H](CC(N)=O)NC(=O)[C@H](CCCCN)NC(=O)[C@@H](NC(=O)[C@@H]2CCCN2)CSSC[C@@H](C(=O)N[C@@H](CCCCN)C(=O)O)NC(=O)[C@H](CO)NC(=O)[C@H](CO)NC(=O)[C@@H](Cc2ccccc2)NC1=O [CORTISTATIN-14] (H-PCKNFFW[dK]T[dF]SSCK-OH; disulfide 2-13)	inactive	100%	inactive	6.1	86%					
CCC(C)[C@H]1C(=O)Nc2ccc(NCCCN(C)C)cc2-c2nc3cc(C(=O)NCc4cccc(C(F)(F)F)c4)ccc3n21 (stereo partly specified)	147%	103%	157%	5.4	85%	63.1	631	6.1		
CSCC[C@H](NC(=O)[C@H](Cc1ccccc1)NC(=O)CNC(=O)CNC(=O)[C@@H](N)Cc1ccc(O)cc1)C(=O)N[C@@H](CCCNC(=N)N)C(=O)N[C@@H](CCCNC(=N)N)C(=O)N[C@H](C(=O)NCC(=O)N[C@@H](CCCNC(=N)N)C(=O)N1CCC[C@H]1C(=O)N[C@@H](CCC(=O)O)C(=O)N[C@@H](Cc1c[nH]c2ccccc12)C(=O)N[C@@H](Cc1c[nH]c2ccccc12)C(=O)N[C@@H](CCSC)C(=O)N[C@@H](CC(=O)O)C(=O)N[C@@H](Cc1ccc(O)cc1)C(=O)N[C@@H](CCC(N)=O)C(=O)N[C@@H](CCCCN)C(=O)N[C@@H](CCCNC(=N)N)C(=O)N[C@@H](Cc1ccc(O)cc1)C(=O)NCC(=O)O)C(C)C	100%	inactive	50%		inactive	794		4.5		
CCC(C)[C@H]1C(=O)Nc2ccc(N3CCC(NC(C)=O)C3)cc2-c2nc3cc(C(=O)NCc4cccc(C(F)(F)F)c4)ccc3n21 (stereo partly specified)	129%	41%	124%	5.7	27%	316	1260	6.4		
CCC(C)[C@H]1C(=O)Nc2ccc(NCCN3CCCCC3)cc2-c2nc3cc(C(=O)NCc4cccc(C(F)(F)F)c4)ccc3n21 (stereo partly specified)	133%	28%	127%		inactive	200	2000	6.1		
C[C@@H](O)[C@@H]1NC(=O)[C@H](CCCCN)NC(=O)[C@H](Cc2c[nH]c3ccccc23)NC(=O)[C@H](Cc2ccccc2)NC(=O)[C@H](Cc2ccccc2)NC(=O)[C@H](CC(N)=O)NC(=O)[C@H](CCCCN)NC(=O)[C@@H](NC(=O)[C@@H]2CCCN2)CSSC[C@@H](C(=O)N[C@@H](CCCCN)C(=O)O)NC(=O)[C@H](CO)NC(=O)[C@H](CO)NC(=O)[C@H](Cc2ccccc2)NC1=O [CORTISTATIN-14] (H-PCKNFFWKTFSSCK-OH; disulfide 2-13)							501			
CCC(C)[C@H]1C(=O)Nc2ccc(NCCOCCOCCN)cc2-c2nc3cc(C(=O)NCc4cccc(C(F)(F)F)c4)ccc3n21 (stereo partly specified)	135%	inactive	126%		inactive	316		6.1		

Now from value to compound:

Efficacy [1]	Efficacy [2]	Efficacy (Macaca mulatta [3])	pEC50 [4]	Efficacy (Macaca mulatta [5])	EC50 [6] [nM]	EC50 [7] [nM]	pEC50 [8]	Activity [9]	microsomal CLint [10] [µL/min/mg]	Structure (SMILES)
inactive	110%	inactive	6.4	50%		316				CC(C)[C@H]1C(=O)Nc2ccc(NC3CCCCCC3)cc2-c2nc3cc(C(=O)N4CCCN(C)CC4)ccc3n21
inactive	216%	inactive	6.7	133%		398		Active	5	CC(C)[C@H]1C(=O)Nc2ccc(N3CCN(Cc4ccccc4)CC3)cc2-c2nc3cc(C(=O)N(C)C4CCN(C)CC4)ccc3n21
98%	inactive	89%		inactive	2510		5.6			CC(=O)NC1CCN(c2ccc3c(c2)-c2nc4cc(C(=O)N5CCN(c6ccc(F)cc6)CC5)ccc4n2[C@@H](C(C)C)C(=O)N3)C1 (stereo partly specified)
94%	inactive	57%		inactive	1260		6			CC(C)[C@H]1C(=O)Nc2ccc(NCCN3CCCCC3)cc2-c2nc3cc(C(=O)N4CCN(c5ccc(F)cc5)CC4)ccc3n21
inactive	87%					158				CC(C)[C@H]1C(=O)Nc2ccc(NCc3ccccc3)cc2-c2nc3cc(C(=O)N(C)C4CCN(C)CC4)ccc3n21
108%	60%	102%		inactive	631		5.8			CC(C)[C@H]1C(=O)Nc2ccc(NCCCN(C)C)cc2-c2nc3cc(C(=O)N4CCN(c5ccc(F)cc5)CC4)ccc3n21

— ChEMBL document CHEMBL1153297, “Discovery of non-peptidergic MrgX1 and MrgX2 receptor agonists and exploration of an initial SAR using solid-phase synthesis” (Bioorg Med Chem Lett, 2009)
